Measured values taken from US11187690B2, “Synthetic receptors for hydrosulfide” (University of Oregon, priority 2016, dated 2021).

Columns and labels:
[1] = 1H NMR titration with NBu4SH (HS^− binding); conditions: 10% DMSO-d6/CD3CN; for selectivity for HS^− over Cl^−: 1H NMR titration data
Method: To investigate whether HS^− is a suitable anionic guest for compounds 1-3, we titrated NBu4SH into 0.5-1.0 mM solution of each host in 10% DMSO-d6/CD3CN and monitored the titrations by ^1H NMR spectroscopy. […] For example, upon addition of HS^− to a 0.988 mM solution of 1, the aryl CHa shifted from 7.99 to 9.24 ppm, and the NHb and NHc urea protons shift downfield from 7.94 and 8.92 to 8.63 and 11.18 ppm, respectively. […] We also confirmed that the observed changes in the NMR spectra upon HS^− addition were not merely due to deprotonation of the urea NH groups. […] Titration data of HS^− with the host fit to simple 1:1 binding isotherm models, and a new, upfield-shifted peak appears for bound hydrosulfide.
(§1) The higher selectivity is likely due to the pyridine lone pair acting as a hydrogen bond acceptor, which provides an additional stabilizing interaction for HS^− and a destabilizing interaction for Cl^−. The phenyl core of host 1 donates a hydrogen bond to both anionic guests, resulting in decreased selectivity for hydrosulfide, even if this CH hydrogen bond is an important component to the high overall binding energy.

[2] = 1H NMR comparison titration with NBu4Cl (Cl^− binding); conditions: 10% DMSO-d6/CD3CN
Description: as §1

[3] = UV-Vis titration with NBu4SH in MeCN (HS^− binding); conditions: for HS^− binding constant: no DMSO co-solvent, 10 μM host
Method: (§2) To further investigate the difference in anion selectivity, binding constants were also measured at lower concentrations by UV-Vis spectroscopy in MeCN; the data are summarized in Table 1.
We expected that removal of the DMSO co-solvent would increase the observed binding affinities since acetonitrile is a slightly less competitive solvent (especially as a hydrogen bond acceptor).

[4] = UV-Vis titration with NBu4Cl in MeCN (Cl^− binding)
Method: as §2

[5] = Reversibility of HS^− binding (NBu4SH then Zn(OAc)2, 1H NMR); conditions: hydrogen-bond binding; for 1: 1.0 mM in 10% DMSO-d6/CD3CN, 2 equiv NBu4SH, 4 equiv Zn(OAc)2, 5 more equiv NBu4SH
[6] = 13C{1H} NMR check of alkyne reactivity toward HS^−; type: physicochemical; conditions: 2.3 mM host, 10 equivalents of HS^−

SMILES | HS^− ΔG [1] | selectivity for HS^− over Cl^− [1] | Cl^− ΔG [2] | HS^− ΔG [3] | HS^− binding constant ([3]; UV-Vis) | Cl^− ΔG [4] | reversibility of HS^− binding [5] | reactivity of host alkynes toward HS^− [6] | selectivity HS^−:Cl^− ([3]; UV-Vis)
CC(C)(C)c1ccc(NC(=O)Nc2ccccc2)c(C#Cc2cccc(C#Cc3cc(C(C)(C)C)ccc3NC(=O)Nc3ccccc3)n2)c1 [Host 3] | -4.25 kcal/mol | 6 fold | -3.19 kcal/mol | -6.07 kcal/mol | ~25,000 M^−1 | -4.20 kcal/mol | – | – | –
COc1ccc(NC(=O)Nc2ccc(C(C)(C)C)cc2C#Cc2cccc(C#Cc3cc(C(C)(C)C)ccc3NC(=O)Nc3ccc(OC)cc3)c2)cc1 [Host 1] | -5.05 kcal/mol | 2.8 fold | -4.43 kcal/mol | -6.76 kcal/mol | 90,300 M^−1 | -6.18 kcal/mol | confirming the reversibility of binding | alkynes were unreactive toward HS^− | remained similar to the 10% DMSO-d6/CD3CN system
COc1ccc(NC(=O)Nc2ccc(C(C)(C)C)cc2C#Cc2cccc(C#Cc3cc(C(C)(C)C)ccc3NC(=O)Nc3ccc(OC)cc3)n2)cc1 [Host 2] | -4.15 kcal/mol | 6 fold | -3.19 kcal/mol | -5.86 kcal/mol | ~25,000 M^−1 | -4.35 kcal/mol | – | – | –
